PubChem BioAssay AID330 (DTP/NCI, 2004)
“And” between values parts separate entries of the source, which are not always exact repeats. Identical values can stand only once. Toxic doses and inconclusive results are not listed. Rule for the calls: active = survival T/C of 150% or more; inactive = T/C below 125% in these data.

Tested on: P388 leukemia ip, CD2F1 mice, survival T/C
Test: NCI In Vivo Anticancer Drug Screen. Data for tumor model P388 Leukemia (intraperitoneal) in CD2F1 (CDF1) mice
Details: endpoint: median survival time, higher = longer survival
Summary of the method: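 Mice carrying the transplanted tumor received test compound or vehicle. Survival was recorded in each group, and the value is the treated-group measurement divided by that of the vehicle-treated control group.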

[1] = dose: 25.0 mg/kg/injection, schedule: Q01DX009 (ip), vehicle: Klucel (hydroxypropylcellulose) (HPC)
[2] = dose: 50.0 mg/kg/injection, schedule: Q01DX009 (ip), vehicle: Klucel (hydroxypropylcellulose) (HPC)
[3] = dose: 200.0 mg/kg/injection, schedule: Q01DX009 (ip), vehicle: Klucel (hydroxypropylcellulose) (HPC)
[4] = dose: 50.0 mg/kg/injection, schedule: Q01DX005 (ip), vehicle: saline with Tween-80
[5] = dose: 100.0 mg/kg/injection, schedule: Q01DX005 (ip), vehicle: saline with Tween-80
[6] = dose: 50.0 mg/kg/injection, schedule: Q01DX009 (ip), vehicle: saline
[7] = dose: 100.0 mg/kg/injection, schedule: Q01DX009 (ip), vehicle: saline
[8] = dose: 200.0 mg/kg/injection, schedule: Q01DX009 (ip), vehicle: saline
[9] = dose: 50.0 mg/kg/injection, schedule: Q01DX005 (ip), vehicle: Klucel (hydroxypropylcellulose) (HPC)
[10] = dose: 100.0 mg/kg/injection, schedule: Q01DX005 (ip), vehicle: Klucel (hydroxypropylcellulose) (HPC)
[11] = dose: 200.0 mg/kg/injection, schedule: Q01DX005 (ip), vehicle: Klucel (hydroxypropylcellulose) (HPC)
[12] = dose: 60.0 mg/kg/injection, schedule: Q01DX005 (ip), vehicle: Klucel (hydroxypropylcellulose) (HPC)
[13] = dose: 120.0 mg/kg/injection, schedule: Q01DX005 (ip), vehicle: Klucel (hydroxypropylcellulose) (HPC)
[14] = dose: 240.0 mg/kg/injection, schedule: Q01DX005 (ip), vehicle: Klucel (hydroxypropylcellulose) (HPC)
[15] = dose: 60.0 mg/kg/injection, schedule: Q01DX005 (ip), vehicle: saline with Tween-80
[16] = dose: 50.0 mg/kg/injection, schedule: Q01DX009 (ip), vehicle: saline with Tween-80
[17] = dose: 100.0 mg/kg/injection, schedule: Q01DX009 (ip), vehicle: saline with Tween-80
[18] = dose: 100.0 mg/kg/injection, schedule: Q04DX003 (ip), vehicle: saline with Tween-80
[19] = dose: 200.0 mg/kg/injection, schedule: Q01DX009 (ip), vehicle: saline with Tween-80
[20] = dose: 200.0 mg/kg/injection, schedule: Q04DX003 (ip), vehicle: saline with Tween-80
[21] = dose: 100.0 mg/kg/injection, schedule: Q01DX009 (ip), vehicle: Klucel (hydroxypropylcellulose) (HPC)
[22] = dose: 200.0 mg/kg/injection, schedule: Q01DX005 (ip), vehicle: saline with Tween-80

Measured: T/C

O=C(O)c1ccccc1SCCO
inactive: [1] 89 % of control | [2] 91 % of control | [3] 90 % of control

CC(C)C(NN)C(=O)O (configuration not stated)
inactive: [4] 98 % of control | [5] 116 % of control

N#CN
inactive: dose: 12.5 mg/kg/injection, schedule: Q01DX009 (ip), vehicle: suspension in saline 103 % of control | dose: 25.0 mg/kg/injection, schedule: Q01DX009 (ip), vehicle: suspension in saline 97 % of control | [6] 91 % of control and 103 % of control | dose: 50.0 mg/kg/injection, schedule: Q01DX009 (ip), vehicle: suspension in saline 107 % of control | [7] 101 % of control and 106 % of control | [8] 102 % of control

CC(C)CC1CC(=O)C(=O)C(CC(C)C)C1 (configuration not stated)
inactive: [9] 95 % of control | [10] 97 % of control | [11] 110 % of control

N#Cc1nnc2cc(-c3ccccc3)nn2c1C1CC1
inactive: [12] 96 % of control | [13] 96 % of control | [14] 100 % of control

O=C1CSC(c2ccccc2Cl)N1N1C(=O)CSC1c1ccccc1Cl (configuration not stated)
inactive: [12] 100 % of control | [13] 93 % of control | [14] 98 % of control

COC(=O)C1=C(C(=O)OC)C2OC1c1cc3ccccc3cc12
inactive: dose: 7.5 mg/kg/injection, schedule: Q01DX005 (ip), vehicle: saline with Tween-80 113 % of control | dose: 15.0 mg/kg/injection, schedule: Q01DX005 (ip), vehicle: saline with Tween-80 113 % of control | dose: 30.0 mg/kg/injection, schedule: Q01DX005 (ip), vehicle: saline with Tween-80 108 % of control | [15] 97 % of control

CC(=O)Nc1ncn[nH]1
inactive: [16] 100 % of control | [17] 90 % of control | [18] 100 % of control | [19] 90 % of control | [20] 90 % of control

O=P(O)(O)SP(=O)(O)O.[Zn+2]
inactive: dose: 100.0 mg/kg/injection, schedule: Q04DX003 (ip), vehicle: Klucel (hydroxypropylcellulose) (HPC) 101 % of control | dose: 200.0 mg/kg/injection, schedule: Q04DX003 (ip), vehicle: Klucel (hydroxypropylcellulose) (HPC) 105 % of control

C/C=c1/[nH]c(=O)/c(=C\C=C\c2ccccc2)[nH]c1=O
inactive: [1] 106 % of control and 91 % of control | [2] 104 % of control and 91 % of control | [21] 88 % of control and 91 % of control and 95 % of control | [3] 97 % of control

CCOC(=O)C(C)(C)CN(CC(C)(C)C(=O)OCC)C(C)(C)C
inactive: [18] 109 % of control | [20] 109 % of control | dose: 400.0 mg/kg/injection, schedule: Q04DX003 (ip), vehicle: saline with Tween-80 122 % of control

CNC1C(OC2C(OC3C(O)C(O)C(N=C(N)N)C(O)C3N=C(N)N)OC(C)C2(O)/C=N/NC(N)=S)OC(CO)C(O)C1O (configuration not stated)
inactive: [4] 101 % of control | [5] 100 % of control | [22] 103 % of control

Cc1ccc(C#N)c(Cl)c1
inactive: [6] 100 % of control | [7] 100 % of control | [8] 106 % of control

CP1(=S)C=C(NC2CCCCC2)CC1 (configuration not stated)
inactive: dose: 12.5 mg/kg/injection, schedule: Q01DX009 (ip), vehicle: Klucel (hydroxypropylcellulose) (HPC) 99 % of control | [1] 107 % of control | [2] 110 % of control | [21] 92 % of control | [3] 95 % of control

COc1cc(C(=O)NN=C(C)C)cc(OC)c1OC
inactive: [9] 101 % of control | [10] 104 % of control | [11] 101 % of control

CC(C)=CC(=O)Sc1ccccc1
inactive: dose: 12.5 mg/kg/injection, schedule: Q01DX005 (ip), vehicle: saline with Tween-80 101 % of control | dose: 25.0 mg/kg/injection, schedule: Q01DX005 (ip), vehicle: saline with Tween-80 94 % of control | [4] 102 % of control and 104 % of control

CC(C)CC(NC(=O)c1cccnc1)C(=O)O (configuration not stated)
inactive: [9] 104 % of control | [10] 99 % of control | [11] 93 % of control

CC(=O)OC1CCC2(C)C3CCC4(C)C(=CCC5(C(=O)O)CCC(C)(C)CC45)C3(C)CCC2C1(C)C (configuration not stated)
inactive: dose: 0.25 mg/kg/injection, schedule: Q01DX009 (ip), vehicle: saline + Tween-80 + alcohol 97 % of control | dose: 0.5 mg/kg/injection, schedule: Q01DX009 (ip), vehicle: saline + Tween-80 + alcohol 101 % of control | dose: 1.0 mg/kg/injection, schedule: Q01DX009 (ip), vehicle: saline + Tween-80 + alcohol 106 % of control | dose: 2.0 mg/kg/injection, schedule: Q01DX009 (ip), vehicle: saline + Tween-80 + alcohol 97 % of control | dose: 4.0 mg/kg/injection, schedule: Q01DX009 (ip), vehicle: saline + Tween-80 + alcohol 106 % of control

O=C1CCC(=O)N1CCCN1CCOCC1
inactive: dose: 60.0 mg/kg/injection, schedule: Q01DX005 (ip), vehicle: saline 89 % of control | dose: 120.0 mg/kg/injection, schedule: Q01DX005 (ip), vehicle: saline 88 % of control | dose: 240.0 mg/kg/injection, schedule: Q01DX005 (ip), vehicle: saline 99 % of control

S=c1c2ccccc2c(=S)n(-c2ccccc2)n1-c1ccccc1
inactive: [12] 91 % of control | [13] 94 % of control | [14] 92 % of control

CCOC(=O)C(C#N)C1(O)C(=O)Nc2ccccc21 (configuration not stated)
inactive: [9] 104 % of control | [10] 102 % of control | [11] 103 % of control

O=C(N/N=C/c1cccc(O)c1O)c1ccccc1
inactive: [4] 104 % of control | [5] 109 % of control | [22] 119 % of control

Cc1ccc(S(=O)(=O)NCc2cccc(CNS(=O)(=O)c3ccc(C)cc3)c2)cc1
inactive: [16] 104 % of control | [17] 89 % of control | [19] 100 % of control

CC1(C)N=NC([Si](C)(C)C)=C1C(=O)c1ccccc1
inactive: [12] 101 % of control | [13] 98 % of control | [14] 105 % of control

O=[N+]([O-])c1cc2c(cc1C=Nc1ccc(O)cc1)OCO2
inactive: dose: 12.5 mg/kg/injection, schedule: Q01DX009 (ip), vehicle: other 113 % of control | dose: 25.0 mg/kg/injection, schedule: Q01DX009 (ip), vehicle: other 117 % of control | dose: 50.0 mg/kg/injection, schedule: Q01DX009 (ip), vehicle: other 113 % of control | dose: 100.0 mg/kg/injection, schedule: Q01DX009 (ip), vehicle: other 96 % of control | dose: 200.0 mg/kg/injection, schedule: Q01DX009 (ip), vehicle: other 110 % of control | dose: 400.0 mg/kg/injection, schedule: Q01DX009 (ip), vehicle: other 113 % of control

Brc1cccc[n+]1Cc1cc2ccccc2c2ccccc12
inactive: dose: 25.0 mg/kg/injection, schedule: Q04DX002 (ip), vehicle: Klucel (hydroxypropylcellulose) (HPC) 105 % of control | dose: 50.0 mg/kg/injection, schedule: Q04DX002 (ip), vehicle: Klucel (hydroxypropylcellulose) (HPC) 106 % of control | dose: 100.0 mg/kg/injection, schedule: Q04DX002 (ip), vehicle: Klucel (hydroxypropylcellulose) (HPC) 112 % of control

Cc1nc2ccccc2nc1N
inactive: [15] 94 % of control | dose: 120.0 mg/kg/injection, schedule: Q01DX005 (ip), vehicle: saline with Tween-80 98 % of control | dose: 240.0 mg/kg/injection, schedule: Q01DX005 (ip), vehicle: saline with Tween-80 98 % of control

O=C(O)CC(CC(=O)O)c1ccc2c(c1)OCO2
inactive: [9] 99 % of control | [10] 109 % of control | [11] 99 % of control

CN1CCC(c2ccccc2)(c2ccccc2)OC1
inactive: dose: 25.0 mg/kg/injection, schedule: Q01DX009 (ip), vehicle: saline 100 % of control | [6] 100 % of control | [7] 113 % of control

O=C(Nc1ccc(NC(=O)c2ccncc2)cc1)c1ccncc1
inactive: [4] 97 % of control | [5] 93 % of control | [22] 97 % of control

O=C(O)CC(=O)C(C(=O)O)C(CCc1ccccc1)C(C(=O)O)C(=O)CC(=O)O (configuration not stated)
inactive: dose: 3.12 mg/kg/injection, schedule: Q01DX009 (ip), vehicle: saline with Tween-80 92 % of control | dose: 6.25 mg/kg/injection, schedule: Q01DX009 (ip), vehicle: saline with Tween-80 101 % of control | dose: 12.5 mg/kg/injection, schedule: Q01DX009 (ip), vehicle: saline with Tween-80 100 % of control | [16] 89 % of control and 92 % of control | [19] 90 % of control
